For 9 compounds, Ki results are on record in patent US20110046104A1, “AMINOPYRIMIDINES USEFUL AS KINASE INHIBITORS” (VERTEX PHARMACEUTICALS INCORPORATED, priority 2007, published 2011).

The target of one assay is Aurora-1 (Aurora B) (Homo sapiens, UniProt Q96GD4). Put plainly: Aurora-1 (Aurora B) inhibition assay (radiometric). In kind it is biochemical. As to conditions: 800 μM [γ-33P]-ATP, Kemptide, 25° C., 3 hours. The method, then: An assay buffer solution was prepared which consisted of 25 mM HEPES (pH 7.5), 10 mM MgCl2, 0.1% BSA and 10% glycerol. A 22 nM Aurora-B solution, also containing 1.7 mM DTT and 1.5 mM Kemptide (LRRASLG), was prepared in assay buffer. To 22 μL of the Aurora-B solution, in a 96-well plate, was added 2 μl of a compound stock solution in DMSO and the mixture allowed to equilibrate for 10 minutes at 25° C. The enzyme reaction was initiated by the addition of 16 μl stock [γ-^33P]-ATP solution (˜20 nCi/μL) prepared in assay buffer, to a final assay concentration of 800 μM. The reaction was stopped after 3 hours by the addition of 16 μL 500 mM phosphoric acid and the levels of ^33P incorporation into the peptide substrate were determined by the following method.
Sequence of Aurora-1 (Aurora B) (Q96GD4 whole entry): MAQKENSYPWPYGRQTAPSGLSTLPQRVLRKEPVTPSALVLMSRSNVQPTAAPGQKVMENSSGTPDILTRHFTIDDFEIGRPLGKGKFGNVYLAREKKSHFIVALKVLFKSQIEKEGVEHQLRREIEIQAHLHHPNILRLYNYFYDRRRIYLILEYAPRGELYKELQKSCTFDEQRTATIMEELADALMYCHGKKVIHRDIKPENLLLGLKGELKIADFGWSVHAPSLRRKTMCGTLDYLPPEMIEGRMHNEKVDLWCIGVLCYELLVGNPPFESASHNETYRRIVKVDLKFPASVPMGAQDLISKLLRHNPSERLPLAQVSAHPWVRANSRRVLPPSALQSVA
A phosphocellulose 96-well plate (Millipore, Cat no. MAPHNOB50) was pre-treated with 100 μL of a 100 mM phosphoric acid prior to the addition of the enzyme reaction mixture (40 μL). The solution was left to soak on to the phosphocellulose membrane for 30 minutes and the plate subsequently washed four times with 200 μL of a 100 mM phosphoric acid. To each well of the dry plate was added 30 μL of Optiphase ‘SuperMix’ liquid scintillation cocktail (Perkin Elmer) prior to scintillation counting (1450 Microbeta Liquid Scintillation Counter, Wallac). Levels of non-enzyme catalyzed background radioactivity were determined by adding 16 μL of the 500 mM phosphoric acid to control wells, containing all assay components (which acts to denature the enzyme), prior to the addition of the [γ-^33P]-ATP solution. Levels of enzyme catalyzed ^33P incorporation were calculated by subtracting mean background counts from those measured at each inhibitor concentration. For each Ki determination 8 data points, typically covering the concentration range 0-10 μM compound, were obtained in duplicate (DMSO stocks were prepared from an initial compound stock of 10 mM with subsequent 1:2.5 serial dilutions). Ki values were calculated from initial rate data by non-linear regression using the Prism software package (Prism 3.0, Graphpad Software, San Diego, Calif.).

A further assay has as its target T1, Aurora-2 (Aurora A) (Homo sapiens, UniProt O14965).
T1 sequence (O14965 1-403): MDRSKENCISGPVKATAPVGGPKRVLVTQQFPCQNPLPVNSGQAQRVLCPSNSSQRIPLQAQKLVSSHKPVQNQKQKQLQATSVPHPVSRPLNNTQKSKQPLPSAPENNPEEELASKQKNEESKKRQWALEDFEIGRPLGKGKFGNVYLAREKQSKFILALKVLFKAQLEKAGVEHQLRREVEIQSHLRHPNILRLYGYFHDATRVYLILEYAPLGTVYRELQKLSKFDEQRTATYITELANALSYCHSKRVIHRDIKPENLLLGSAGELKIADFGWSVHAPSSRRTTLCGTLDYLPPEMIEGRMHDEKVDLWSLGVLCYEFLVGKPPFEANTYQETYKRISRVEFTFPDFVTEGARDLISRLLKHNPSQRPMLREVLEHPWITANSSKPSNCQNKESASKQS
Kind of assay: Aurora-2 (Aurora A) inhibition assay, coupled enzyme assay. In kind it is biochemical. As to conditions: 400 μM ATP, 570 μM Kemptide, 40 nM Aurora-2, 30° C. The method, then:
Compounds were screened for their ability to inhibit Aurora-2 using a standard coupled enzyme assay (Fox et al., Protein Sci., (1998) 7, 2249). Assays were carried out in a mixture of 100 mM Hepes (pH7.5), 10 mM MgCl2, 1 mM DTT, 25 mM NaCl, 2.5 mM phosphoenolpyruvate, 300 μM NADH, 30 μg/ml pyruvate kinase and 10 μg/ml lactate dehydrogenase. Final substrate concentrations in the assay were 400 μM ATP (Sigma Chemicals) and 570 μM peptide (Kemptide, American Peptide, Sunnyvale, Calif.). Assays were carried out at 30° C. and in the presence of 40 nM Aurora-2.
An assay stock buffer solution was prepared containing all of the reagents listed above, with the exception of Aurora-2 and the test compound of interest. 55 μl of the stock solution was placed in a 96 well plate followed by addition of 2 μl of DMSO stock containing serial dilutions of the test compound (typically starting from a final concentration of 7.5 μM). The plate was preincubated for 10 minutes at 30° C. and the reaction initiated by addition of 10 μl of Aurora-2. Initial reaction rates were determined with a Molecular Devices SpectraMax Plus plate reader over a 10 minute time course. IC50 and Ki data were calculated from non-linear regression analysis using the Prism software package (GraphPad Prism version 3.0cx for Macintosh, GraphPad Software, San Diego Calif., USA).

For the compound `O=C(CC(F)(F)F)Nc1ccc(Sc2nc(Nc3ncns3)cc(N3CC[C@H](F)C3)n2)cc1` [Compound I-11, (S)—N-(4-(4-(1,2,4-Thiadiazol-5-ylamino)-6-(3-fluoropyrrolidin-1-yl)pyrimidin-2-ylthio)phenyl)-3,3,3-trifluoropropanamide], on Aurora-1 (Aurora B), the Ki was more than 1.5 µM.
The same measure, in the same setting: the same measure for `O=C(CC(F)(F)F)Nc1ccc(Sc2nc(Nc3nnc[nH]3)cc(N3CC(F)(C4CC4)C3)n2)cc1` [Compound I-2, N-(4-(4-(4H-1,2,4-Triazol-3-ylamino)-6-(3-cyclopropyl-3-fluoroazetidin-1-yl)pyrimidin-2-ylthio)phenyl)-3,3,3-trifluoropropanamide]: more than 1.5 µM; for `O=C(Nc1ccc(Sc2nc(Nc3ncns3)cc(N3CC(F)(C4CC4)C3)n2)cc1)C1CC1` [Compound I-4, N-(4-(4-(1,2,4-Thiadiazol-5-ylamino)-6-(3-cyclopropyl-3-fluoroazetidin-1-yl)pyrimidin-2-ylthio)phenyl)cyclopropanecarboxamide]: more than 1.5 µM.
As to `O=C(CC(F)(F)F)Nc1ccc(Sc2nc(Nc3ncns3)cc(N3CC(F)(C4CC4)C3)n2)cc1` [Compound I-1, N-(4-(4-(1,2,4-thiadiazol-5-ylamino)-6-(3-cyclopropyl-3-fluoroazetidin-1-yl)pyrimidin-2-ylthio)phenyl)-3,3,3-trifluoropropanamide], the Ki was 0.033 µM at Aurora-2 (Aurora A) and more than 1.5 µM on Aurora-1 (Aurora B).
With `O=C(CC(F)(F)F)Nc1ccc(Sc2nc(Nc3ccccn3)cc(N3CC(F)(C4CC4)C3)n2)cc1` [Compound I-3, N-(4-(4-(3-Cyclopropyl-3-fluoroazetidin-1-yl)-6-(pyridin-2-ylamino)pyrimidin-2-ylthio)phenyl)-3,3,3-trifluoropropanamide], the Ki on Aurora-1 (Aurora B) is less than 0.5 µM.
`O=C(Nc1ccc(Sc2nc(Nc3ncns3)cc(N3CCC3)n2)cc1)c1ccccc1Cl` [Compound I-7, N-(4-(4-(1,2,4-Thiadiazol-5-ylamino)-6-(azetidin-1-yl)pyrimidin-2-ylthio)phenyl)-2-chlorobenzamide] had a Ki on Aurora-1 (Aurora B) of less than 0.5 µM.
The same measure, in the same setting: for `O=C(CC(F)(F)F)Nc1ccc(Sc2nc(Nc3ccccn3)cc(N3CC[C@H](F)C3)n2)cc1` [Compound I-9, (S)-3,3,3-Trifluoro-N-(4-(4-(3-fluoropyrrolidin-1-yl)-6-(pyridin-2-ylamino)pyrimidin-2-ylthio)phenyl)propanamide] the value was more than 1.5 µM; for `O=C(CC(F)(F)F)Nc1ccc(Sc2nc(Nc3nnc[nH]3)cc(N3CC[C@H](F)C3)n2)cc1` [Compound I-10, (S)—N-(4-(4-(4H-1,2,4-Triazol-3-ylamino)-6-(3-fluoropyrrolidin-1-yl)pyrimidin-2-ylthio)phenyl)-3,3,3-trifluoropropanamide], less than 0.5 µM; for `O=C(NCC(F)(F)F)c1ccc(Sc2nc(Nc3ncns3)cc(N3CC(F)(C4CC4)C3)n2)cc1` [Compound I-8, 4-(4-(1,2,4-Thiadiazol-5-ylamino)-6-(3-cyclopropyl-3-fluoroazetidin-1-yl)pyrimidin-2-ylthio)-N-(2,2,2-trifluoroethyl)benzamide], more than 1.5 µM.

As a reminder, the Ki is a dissociation constant, usually derived from enzyme kinetics or from competition with a known ligand.
